Where a name gives a salt, the structure may show the parent alone. Blank lines part the entries; values can stand above or below the compound they belong to.
How the values were obtained:
binding of substance P = test: antagonism of the binding of substance P on rat cortical membranes and IM9 lymphoblasts; conditions: rat cortical membranes and/or IM9 lymphoblasts (not said which); read-out: Ki, antagonizes the binding of substance P
binding of eledoisin = target: T1, binding of eledoisin (Rattus norvegicus, UniProt P16177); test: antagonism of the binding of eledoisin on rat membranes; conditions: read-out: Ki, antagonizes the binding of eledoisin
T1 construct: tests performed on rat membranes; from tissue
T1 sequence (P16177 1-452): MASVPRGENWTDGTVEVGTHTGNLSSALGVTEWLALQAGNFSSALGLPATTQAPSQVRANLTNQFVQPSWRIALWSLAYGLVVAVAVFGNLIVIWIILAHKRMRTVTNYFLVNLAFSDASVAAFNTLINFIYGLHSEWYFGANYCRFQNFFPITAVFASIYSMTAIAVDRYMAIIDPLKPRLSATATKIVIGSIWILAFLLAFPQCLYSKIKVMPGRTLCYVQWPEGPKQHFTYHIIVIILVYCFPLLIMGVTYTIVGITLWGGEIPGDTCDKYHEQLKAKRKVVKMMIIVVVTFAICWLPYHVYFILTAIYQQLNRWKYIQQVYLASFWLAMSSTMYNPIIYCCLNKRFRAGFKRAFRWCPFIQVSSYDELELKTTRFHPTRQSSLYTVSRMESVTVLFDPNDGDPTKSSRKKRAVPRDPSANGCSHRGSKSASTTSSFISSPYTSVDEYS
Excerpt: Foster et al., Br. J. Pharmacol., 1988, 94, 602-608.
Eledoisin is a peptide of batrachian origin which is equivalent to neurokinin B.

[1] = target: T2, binding of neurokinin A (NKA) (Rattus norvegicus, UniProt P16610); test: antagonism of the binding of NKA on rat duodenal membranes; conditions: read-out: Ki, antagonizes the binding of neurokinin A
T2 construct: tests performed on rat duodenal membranes; from tissue; host or cells: rat duodenal membranes
T2 sequence (P16610 1-390): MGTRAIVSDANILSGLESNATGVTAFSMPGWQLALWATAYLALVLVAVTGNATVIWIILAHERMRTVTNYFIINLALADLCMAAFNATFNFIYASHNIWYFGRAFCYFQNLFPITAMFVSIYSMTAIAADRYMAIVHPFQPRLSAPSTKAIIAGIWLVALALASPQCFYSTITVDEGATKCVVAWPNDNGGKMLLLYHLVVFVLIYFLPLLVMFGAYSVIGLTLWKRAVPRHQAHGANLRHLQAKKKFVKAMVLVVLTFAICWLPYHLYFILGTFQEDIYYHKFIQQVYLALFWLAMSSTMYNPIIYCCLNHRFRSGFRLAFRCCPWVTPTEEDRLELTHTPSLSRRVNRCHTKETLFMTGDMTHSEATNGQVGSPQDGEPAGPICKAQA

NK1 receptor = conditions: D. Regoli, 1988 and 1989; cited from earlier work

Ki (binding of substance P): 8.3 nM
Compound: O=C(Cc1ccccc1)N1CCCC(CCN2CCC(Cc3ccccc3)CC2)(c2ccc(Cl)c(Cl)c2)C1 (stereo not shown) [Compound 2, 3-[2-(4-Benzylpiperidin-1-yl)ethyl]-3-(3,4-dichlorophenyl)-1-phenylacetylpiperidine hydrochloride]

Compound: O=C1CCC(CCN2CCC(O)(c3ccccc3)CC2)(c2ccc(Cl)c(Cl)c2)CN1Cc1ccccc1 (stereo not shown) [Compound 3]
Ki (binding of eledoisin): 200 nM

Compound: O=C(c1ccccc1)N1CCC(CCN2CCC(O)(c3ccccc3)CC2)(c2ccc(Cl)c(Cl)c2)C1 (stereo not shown) [Compound 7]
Ki [1]: 1.3 nM

Compound: [Sar^9,Met-(O2)^11 ]SP
selectivity for the NK1 receptor (NK1 receptor): thought to have a selectivity for the NK1
